The text below walks through data of patent US3941842A, “P,P'-Disubstituted α-trichloromethylbenzylanilines” (priority 1972, dated 1976).

Each structure is given as a SMILES string.

The subject of one data set is multifunction oxidase (MFO) enzymes.
Test: not given
Particulars: background; cited from earlier work.
As for `ClC(Cl)=C(c1ccc(Cl)cc1)c1ccc(Cl)cc1` [DDE, 1,1-dichloro-2,2-bis(p-chlorophenyl) ethylene], the “susceptibility to MFO enzymes (in words)” value was “do not function on DDT and its metabolic derivatives DDE and DDD”.
`Clc1ccc(C(c2ccc(Cl)cc2)C(Cl)Cl)cc1` [DDD, 1,1-dichloro-2,2-bis(p-chlorophenyl)ethane]: the “susceptibility to MFO enzymes (in words)” value was “do not function on DDT and its metabolic derivatives DDE and DDD”.

For a further data set, the system named is Female housefly. The experiment in a line: Metabolism of 3H-ethoxyaniline by female RSP housefly. To be noted: 24 hr after topical 1.0 μg 3H-ethoxyaniline (compound III); excreta. As to the method:
(§1) The compounds of the present invention were tested for insecticidal activity by standard methods, and compared with the insecticidal activities of DDT and symmetrical analogs of DDT, such methoxychlor. Toxicological methods for the determination of the topical LD50 values to adult female SNAIDM and RSP houseflies, Musca domestica L. and to Phormia regina, and LC50 values to Culex pipiens quinquefasciatus Say, and Anopheles albimanus Weid mosquitoes were described by Metcalf el al., 44 Bull. World Health Org. 363 (1971). The methods for evaluation of metabolism by mouse liver homogenate and by female RSP housefly and salt-marsh caterpillar larvae Estigmene acrea Drury, were described by Kapoor et al., 18 J. Agr. Food Chem. 1145 (1970). The techniques for model eocsystem evluation were described by Metcalf et al., 5 J. Environ. Sci. Tech. 709 (1971).
(§2) The biodegradability of an insecticide may be measured by administering measured doses of a tritium labeled test insecticide to a subject. Some time later the subject is sacrificed, liquefied, and a sample of the liquefied insect is placed on a thin layer chromotagraphy (tlc) plate. The plate is developed in a suitable solvent and Rf values of the various compounds contained in the sample are measured against known Rf values of previously synthesized theoretical metabolic breakdown products. The amount of each metabolite present may thus be measured by measuring the ^3 H at each separately resolved spot on the tlc plate. A permanent record may be made by exposing film to the plate to form a ratioautograph.
On to `Oc1ccc(NC(c2ccc(O)cc2)C(Cl)(Cl)Cl)cc1` (stereo not drawn) [HOC6 H4 NHCH(CCl3)C6 H4 OH, α-trichloromethyl-p-hydroxybenzyl-p-hydroxyaniline], for which the “Female housefly, percent 3H in Excreta” value is 5.7%.
For the compound `CCOc1ccc(C(=O)C(Cl)Cl)cc1` [C2 H5 OC6 H4 C(O)CHCl2, p-ethoxydichloroacetophenone], the “Female housefly, percent 3H in Excreta” value was determined as 9.7%.

The data set is the same for the next values; noted with them: 24 hr after topical 1.0 μg 3H-ethoxyaniline (compound III); homogenate.
Regarding `Oc1ccc(NC(c2ccc(O)cc2)C(Cl)(Cl)Cl)cc1` (stereo not drawn) [HOC6 H4 NHCH(CCl3)C6 H4 OH, α-trichloromethyl-p-hydroxybenzyl-p-hydroxyaniline], the “Female housefly, percent 3H in Homogenate” value is on record as 8.4%.
Take `CCOc1ccc(C(=O)C(Cl)Cl)cc1` [C2 H5 OC6 H4 C(O)CHCl2, p-ethoxydichloroacetophenone]: the “Female housefly, percent 3H in Homogenate” value came out at 10.4%.

The subject of a further data set is Musca domestica Snaidm. Description: Topical LD50 to adult female SNAIDM houseflies. Particulars: Musca domestica, topical, read-out: Topical LD50, Musca domestica Snaidm, Alone. As to the method:
as §1
(§3) Since piperonyl butoxide serves to block the action of MFO, the synergized LD50 values express the intrinsic toxicity of the compounds. With the detoxifying action of MFO enzymes blocked, the intrinsic toxicity of the compounds can thus be measured.
Turning to `CN(C)c1ccc(C(Nc2ccc([N+](=O)[O-])cc2)C(Cl)(Cl)Cl)cc1` (centres unmarked) [XXVI], the LD50 was over 500 mg/kg.

Staying with this data set, now noted: SNAIDM strain; synergized with piperonyl butoxide; topical.
For the compound `CN(C)c1ccc(C(Nc2ccc([N+](=O)[O-])cc2)C(Cl)(Cl)Cl)cc1` (centres unmarked) [XXVI], the “Topical LD50, Musca domestica Snaidm, with pb” value turned out to be 120 μg per g.

Staying with this data set, now noted: synergistic ratio: LD50 alone/LD50 synergized with piperonyl butoxide.
As to `CN(C)c1ccc(C(Nc2ccc([N+](=O)[O-])cc2)C(Cl)(Cl)Cl)cc1` (centres unmarked) [XXVI], the “SR, Musca domestica Snaidm” value is on record as over 4.

The next data set deals with Musca domestica (SNAIDM and RSP strains), Phormia regina, Culex fatigans and Anopheles albimanus. The experiment in a line: Insecticidal activity over the test insects (Table II, summarised in words). Particulars: overall, test insects of Table II. It is filed as in vivo. As for the experimental part: as §1, §3
On to `CN(C)c1ccc(C(Nc2ccc([N+](=O)[O-])cc2)C(Cl)(Cl)Cl)cc1` (centres unmarked) [XXVI], for which the “insecticidal effectiveness / toxicity (in words)” value is “Toxicity was also substantially decreased”.

For a further data set, the system named is Musca domestica Rsp. Description: Topical LD50 to adult female RSP houseflies. Particulars: Musca domestica, topical, read-out: Topical LD50, Musca domestica Rsp, Alone. As to the method:
as §1, §3
Take `CN(C)c1ccc(C(Nc2ccc([N+](=O)[O-])cc2)C(Cl)(Cl)Cl)cc1` (centres unmarked) [XXVI]: the LD50 is over 500 mg/kg.

The data set is the same for the next values; noted with them: RSP strain; synergized with piperonyl butoxide; topical.
For `CN(C)c1ccc(C(Nc2ccc([N+](=O)[O-])cc2)C(Cl)(Cl)Cl)cc1` (centres unmarked) [XXVI], the “Topical LD50, Musca domestica Rsp, with pb” value was found to be 500 μg per g.

For the next data set, the system named is Salt-marsh caterpillar. Description: Metabolism of 3H-ethoxyaniline by salt-marsh caterpillar larvae. Particulars: 24 hr after feeding 0.5 mg 3H-ethoxyaniline (compound III); excreta. As to the method: as §1, §2
In the case of `CCOc1ccc(C(=O)C(Cl)Cl)cc1` [C2 H5 OC6 H4 C(O)CHCl2, p-ethoxydichloroacetophenone], the “Salt-marsh caterpillar, percent 3H in Excreta” value is listed as 3.1%.

The data set is the same for the next values; noted with them: 24 hr after feeding 0.5 mg 3H-ethoxyaniline (compound III); homogenate.
With `CCOc1ccc(C(=O)C(Cl)Cl)cc1` [C2 H5 OC6 H4 C(O)CHCl2, p-ethoxydichloroacetophenone], the “Salt-marsh caterpillar, percent 3H in Homogenate” value was 8.7%.

Test system in the next data set: not listed separately
Description: Model ecosystem: distribution, ecological magnification and Biodegradability Index. Particulars: Gambusia (fish); 33 days; 5.0 mg 3H-ethoxyaniline to Sorghum. From the text: After the amounts of the various metabolites have been calculated and a determination is made as to which of the metabolites are to be designated as "polar" and which are to be designated as "non-polar", a Biodegradability Index (amount of polar metabolites/amount of nonpolar metabolites) may be calculated. Remembering that nonpolar compounds, such as DDT are readily soluble in the fatty tissues, but are not readily soluble in water based solutions, and that the cell fluid is essentially a water based solution, the lower the Biodegradability Index, the lower the amount of biodegradability of the compound. The higher the amount of polarity, the greater the likelihood that the polar compound will dissolve in water, a very polar compound, and be eliminated from the cell.
The environmental fate of any new pesticide is a factor of paramount importance in determining how and where it might be used. The behavior of ^3 H-α-trichloromethyl-p-ethoxybenzyl-p-ethoxyaniline has been studied by the model ecosystem technique following application of 5.0 mg. of labeled compound to Sorghum plants. A summary of
metabolites from the organisms in the model ecosystem after 33 days were
identified by cochromatography with standards of known constitution, by
appropriate chromogenic reagents, and by high-resolution mass
spectrometry. The data of Table IV indicate the O-dealkylation of
Food Chem. 1 (1972). Ethoxychlor was found in the snail to 58.6 ppm and in the fish to 0.92 ppm, along with its ethylene and the mono- and bis-phenols formed by O-dealkylation. The ecological magnification (E.M.) of ethoxychlor, defined as the ratio of the parent material in the fish to the concentration in the water, was 1500-fold as compared with an E.M. of only 0.7-fold for the ethoxyaniline.
Comparing the Biodegradability Indices (B.I.=total recovered polar metabolites/total recovered nonpolar metabolites) the values are 0.44 for ethoxychlor and 2.0 for ethoxyaniline.
In the case of `Oc1ccc(NC(c2ccc(O)cc2)C(Cl)(Cl)Cl)cc1` (stereo not drawn) [HOC6 H4 NHCH(CCl3)C6 H4 OH, α-trichloromethyl-p-hydroxybenzyl-p-hydroxyaniline], the “Concentration of ethoxyaniline equivalents in Gambusia (fish)” value came out at 0.03 ppm.
With `CCOc1ccc(C(=O)C(Cl)Cl)cc1` [C2 H5 OC6 H4 C(O)CHCl2, p-ethoxydichloroacetophenone], the “Concentration of ethoxyaniline equivalents in Gambusia (fish)” value came out at 0.28 ppm.

Still in this data set, the particulars now being: Oedogonium (algae); 33 days; 5.0 mg 3H-ethoxyaniline to Sorghum.
With `CCOc1ccc(C(=O)C(Cl)Cl)cc1` [C2 H5 OC6 H4 C(O)CHCl2, p-ethoxydichloroacetophenone], the “Concentration of ethoxyaniline equivalents in Oedogonium (algae)” value came to 0.3 ppm.

The data set is the same for the next values; noted with them: Physa (snail); 33 days; 5.0 mg 3H-ethoxyaniline to Sorghum.
In the case of `Oc1ccc(NC(c2ccc(O)cc2)C(Cl)(Cl)Cl)cc1` (stereo not drawn) [HOC6 H4 NHCH(CCl3)C6 H4 OH, α-trichloromethyl-p-hydroxybenzyl-p-hydroxyaniline], the “Concentration of ethoxyaniline equivalents in Physa (snail)” value is on record as 1.512 ppm.
Same read-out and setting: for `CCOc1ccc(C(=O)C(Cl)Cl)cc1` [C2 H5 OC6 H4 C(O)CHCl2, p-ethoxydichloroacetophenone] the value was 3.542 ppm.

A further data set deals with Anopheles albimanus larvae. The experiment in a line: LC50 to Anopheles albimanus larvae. It is filed as in vivo, Anopheles albimanus Weid.
Conditions: not given
The text has this: (§4) World Health Org. 363 (1971). […] Food Chem. 1145 (1970). […] Sci. Tech. 709 (1971). The results are detailed in Table II. ##SPC1##
On to `CN(C)c1ccc(C(Nc2ccc([N+](=O)[O-])cc2)C(Cl)(Cl)Cl)cc1` (centres unmarked) [XXVI], for which the “LC50 Anopheles albimanus larvae” value was over 1.0 ppm.

For the next data set, the system named is Phormia regina. Description: whole plant or invertebrate. Particulars: Phormia regina, topical, read-out: Topical LD50, Phormia regina, Alone. As for the experimental part: as §1, with “363 (1971).” left out, “Food Chem. 1145 (1970).” left out, “Tech.” for “Tech. 709 (1971).”
as §3
In the case of `CN(C)c1ccc(C(Nc2ccc([N+](=O)[O-])cc2)C(Cl)(Cl)Cl)cc1` (centres unmarked) [XXVI], the LD50 is over 250 mg/kg.

The same data set, now with this note: synergized with piperonyl butoxide; topical.
Consider `CN(C)c1ccc(C(Nc2ccc([N+](=O)[O-])cc2)C(Cl)(Cl)Cl)cc1` (centres unmarked) [XXVI], for which the “Topical LD50, Phormia regina, with pb” value was over 250 μg per g.

The test system of a further data set is Culex fatigans larvae. Description: LC50 to Culex fatigans larvae. It is filed as in vivo, Culex pipiens quinquefasciatus Say.
Conditions: not given
Text: as §4
Consider `CN(C)c1ccc(C(Nc2ccc([N+](=O)[O-])cc2)C(Cl)(Cl)Cl)cc1` (centres unmarked) [XXVI], for which the “LC50 Culex fatigans larvae” value is reported as 0.38 ppm.
